Results published in patent publication US20250282779A1, “SUBSTITUTED 5,6,7,8-TETRAHYDROPYRIDO[2,3-D]PYRIMIDINE-2,4-DIONES FOR TREATING CARDIAC DISEASES” (MYOKARDIA, INC., priority 2018, published 2025).

Legend:
[1] = target: T1, bovine cardiac myosin (Bos taurus (Bovine), UniProt Q9BE39); assay: Myosin inhibition assay (bcMF pCa 6 IC50); format: biochemical; settings: bovine cardiac myofibrils, calcium giving 50% activation
Protocol: Myosin inhibition assay (bcMF pCa 6IC50 (μM))
Small molecule agents were assessed for their ability to inhibit the enzymatic activity of bovine cardiac myosin using a biochemical assay that couples the release of ADP (adenosine diphosphate) from cardiac myosin to an enzymatic coupling system consisting of pyruvate kinase and lactate dehydrogenase (PK/LDH) and monitoring the absorbance decrease of NADH (at 340 nm) as a function of time. PK converts ADP to ATP (adenosine triphosphate) by converting PEP (phosphoenolpyruvate) to pyruvate. Pyruvate is then converted to lactate by LDH by converting NADH (nicotinamide adenine dinucleotide) to NAD (oxidized nicotinamide adenine dinucleotide). The source of cardiac myosin was from bovine heart in the form of skinned myofibrils. Prior to testing small molecule agents, the bovine myofibrils were assessed for their calcium responsiveness and the calcium concentration that achieves a 50% activation of the myofibril system was chosen as the final condition for assessing the inhibitory activity of the small molecule agents. All enzymatic activity was measured in a buffered solution containing 12 mM PIPES (piperazine-N,N′-bis(2-ethanesulfonic acid), 2 mM magnesium chloride at pH 6.8 (PM12 buffer). Final assay conditions were 1 mg/mL of bovine cardiac myofibrils, 0.4 mM PK/LDH, 50 uM ATP, 0.1 mg/mL BSA (bovine serum albumin), 10 ppm antifoam, 2 mM BME, 0.5 mM NADH, and 1.5 mM PEP at the desired free calcium concentration required to achieve 50% activation of the myofibrils.
A dilution series of compound was created in DMSO such that the final desired concentration of compound would be achieved in a volume of 30 μL with a fixed DMSO concentration of 3.3% (v/v). Typically 1 μL of the dilution series were added to 384 well plate to achieve a 10 point dose response. Following the addition of 14 μL of a solution containing bovine cardiac myofibrils, PK/LDH and a solution of calcium (that achieved 50% activation), the enzymatic reaction was started with the addition of 15 μL of a solution containing ATP, PEP and NADH. The reaction progress was followed in a PerkinElmer Envision plate reader at ambient temperature using clear bottom plates. The plate reader was configured to read absorbance at 340 nm in kinetics mode for 15 minutes. Data were recorded as the slope of the absorbance response to time. The slopes of the absorbance response as a function of time were normalized to slopes on the plate containing DMSO. This normalized rate was then plotted as a function of small molecule concentration and the data was fitted to a four-parameter fit using EXCEL XLfit. The IC50 is the concentration at which fifty percent of the total response is inhibited.

[2] = target: T1, bovine cardiac myosin; assay: Myosin inhibition assay (bcMF serum pCa 6 IC50), 10% human serum; format: biochemical; settings: in the presence of 10% human serum
Text: Myosin Inhibition Assay (bcMF Serum pCa 6 IC50 (μM))
Inhibition of the enzymatic activity of bovine cardiac myosin associated with the release of ADP (adenosine diphosphate) at the calcium concentrate that achieves a 50% activation of the bovine cardiac myofibril system in the presence of 10% human serum. The procedure was the same as that bovin cardiac myosin inhibition assay (bcMF pCa 6 IC50 (μM)) but with the addition of 10% human serum.

[3] = system: rabbit skeletal myosin; assay: Myosin inhibition assay (rbskMF pCa 6 IC50); format: biochemical; settings: cardiac vs rabbit skeletal myofibrils
Text: Myosin inhibition assay (rbskMF pCa 6 IC50 (μM))
Inhibition of the enzymatic activity of rabbit skeletal myosin associated with the release of ADP (adenosine diphosphate) at the calcium concentrate that achieves a 50% activation of the rabbit skeletal myofibril system. The procedure was the same as that of bovin cardiac myosin inhibition assay (bcMF pCa 6 IC50 (μM)) by replacing bovine cardiac myofibril with rabbit skeletal myofibril.

[4] = Reactive metabolite identification (glutathione adducts); format: in vitro ADME, human
Protocol: Reactive Metabolite Identification
In vitro determination of reactive metabolite formation for small molecules by detection of glutathione adducts formed in vitro in incubations with human liver microsomes fortified with NADPH and glutathione.
Methods: The metabolism of small molecules (30 μM) for glutathione adduct formation was assessed in incubations (200 μL volume, […], 60 min incubation time) with liver microsomes from human (1 mg/mL protein) conducted in potassium phosphate buffer (0.1 M, pH 7.4) for 1 h at 37° C. in a 96-well plate (2 mL well volume) and were performed in the absence of NADPH (used as a negative control) and in the presence of NADPH (1 mM) and glutathione (GSH, 10 mM). Incubations with liver microsomes were performed in a shaking water bath incubator with slow horizontal shaking (30 rpm). To obtain 30 μM incubation concentration of a compound, a 3 mM substrate stock solution in DMSO was used. Final incubation mixtures contained 148 μL of potassium phosphate buffer, 10 μL of liver microsome solution (20 mg protein/mL), 2 μL of the 3 mM substrate solution and where incubations were initiated by the addition of 40 μL of NADPH solution (5 mM dissolved in potassium phosphate buffer). Non-NADPH containing incubations were supplemented with 40 μL of potassium phosphate buffer. Post-incubation, reactions were terminated by adding an equal volume of acetonitrile containing 20 nM carbamazepine internal standard and 3% formic acid. Quenched samples then were centrifuged (4,600 rpm, 4° C., 10-min) after which the supernatants were transferred to a 96-well LC-MS sample analysis plate and diluted with one volume equivalent of HPLC-grade water, and then heat sealed with aluminum foil prior to analysis by liquid chromatography/mass spectrometry (LC-MS/MS).
Analyte identification: The LC-MS/MS detection (with in-line UV detection at 280 nm) of test compounds and potential GSH-adducts was focused on extracting selected ion chromatographic profiles using the protonated molecular ion MH^+ m/z for parent to 4 decimal places, and corresponding protonated molecular ions of predicted GSH-adduct metabolites (m/z MH^+ parent+305.0681 amu) using Xcalibur software (version 2.1.0, Thermo Fisher Scientific, Waltham, MA). Relative GSH-adduct abundance in vitro in liver microsome extracts was assessed using the LC/UV absorbance at 280 nm peak area ratio obtained by using Xcalibur software (version 2.1.0) between the detected GSH-adducts from NADPH- and GSH-fortified incubation extracts and the corresponding LC/UV peak area of the parent compound from minus NADPH containing incubation extracts. The extent of GSH-adduct formation was determined by LC-MS/MS analysis with in-line LC-UV detection at 280 nm by dividing the glutathione-adduct LC/UV peak area by the LC/UV peak area of the corresponding parent HCM-1 NG analog determined from analysis of control (-NAPDH, -GSH) incubations extracts.
Materials: Pooled male human (HLM, 50 donors) liver microsomes were obtained from Bioreclamation IVT (Baltimore, MD). Glutathione (GSH) and NADPH were purchased from Sigma Chemical Co. (St. Louis, MO). All solvents used for liquid chromatography-tandem mass spectrometry (LC-MS/MS) analyses were of chromatographic grade.
LC-MS Conditions: Extracts from incubations with liver microsomes and hepatocytes were characterized by LC-MS and LC-MS/MS on a Thermo Electron LTQ Orbitrap XL mass spectrometer coupled with a Dionex UltiMate 3000 UHPLC containing in-line diode array detection and an OAS-3300TXRS Autosampler (40 μL injection volume). Electrospray ionization (ESI) was employed in the positive ion mode with the needle potential held at 5.01 kV, a sheath flow rate of 35.02, aux flow rate of 9.99, a current of 2.6 uA, a capillary temperature of 325° C., and a capillary voltage of 15.99. Vacuum conditions used were an ion gauge pressure used was 2.33×10^−5 Torr and a convection gauge pressure of 0.90 Torr. […]

[5] = physchem; settings: pH 7.4, aqueous buffer, kinetic from dmso stock
Protocol: After shaking at room temperature for 1.5 h, the mixture was filtered under vacuum through a 96-well filter plate, which was pre-washed with 100 μL of 70% ethanol per well. Subsequently, 70 μL of the filtrate was added into a well in a 96-well reading plate, which was pre-loaded with 70 μL of DMSO per well. The concentration of the sample in a well was determined on the basis of the intergration on LC with UV detection as compared to the standard curve of each compound established in DMSO.

T1 sequence (Q9BE39 whole entry): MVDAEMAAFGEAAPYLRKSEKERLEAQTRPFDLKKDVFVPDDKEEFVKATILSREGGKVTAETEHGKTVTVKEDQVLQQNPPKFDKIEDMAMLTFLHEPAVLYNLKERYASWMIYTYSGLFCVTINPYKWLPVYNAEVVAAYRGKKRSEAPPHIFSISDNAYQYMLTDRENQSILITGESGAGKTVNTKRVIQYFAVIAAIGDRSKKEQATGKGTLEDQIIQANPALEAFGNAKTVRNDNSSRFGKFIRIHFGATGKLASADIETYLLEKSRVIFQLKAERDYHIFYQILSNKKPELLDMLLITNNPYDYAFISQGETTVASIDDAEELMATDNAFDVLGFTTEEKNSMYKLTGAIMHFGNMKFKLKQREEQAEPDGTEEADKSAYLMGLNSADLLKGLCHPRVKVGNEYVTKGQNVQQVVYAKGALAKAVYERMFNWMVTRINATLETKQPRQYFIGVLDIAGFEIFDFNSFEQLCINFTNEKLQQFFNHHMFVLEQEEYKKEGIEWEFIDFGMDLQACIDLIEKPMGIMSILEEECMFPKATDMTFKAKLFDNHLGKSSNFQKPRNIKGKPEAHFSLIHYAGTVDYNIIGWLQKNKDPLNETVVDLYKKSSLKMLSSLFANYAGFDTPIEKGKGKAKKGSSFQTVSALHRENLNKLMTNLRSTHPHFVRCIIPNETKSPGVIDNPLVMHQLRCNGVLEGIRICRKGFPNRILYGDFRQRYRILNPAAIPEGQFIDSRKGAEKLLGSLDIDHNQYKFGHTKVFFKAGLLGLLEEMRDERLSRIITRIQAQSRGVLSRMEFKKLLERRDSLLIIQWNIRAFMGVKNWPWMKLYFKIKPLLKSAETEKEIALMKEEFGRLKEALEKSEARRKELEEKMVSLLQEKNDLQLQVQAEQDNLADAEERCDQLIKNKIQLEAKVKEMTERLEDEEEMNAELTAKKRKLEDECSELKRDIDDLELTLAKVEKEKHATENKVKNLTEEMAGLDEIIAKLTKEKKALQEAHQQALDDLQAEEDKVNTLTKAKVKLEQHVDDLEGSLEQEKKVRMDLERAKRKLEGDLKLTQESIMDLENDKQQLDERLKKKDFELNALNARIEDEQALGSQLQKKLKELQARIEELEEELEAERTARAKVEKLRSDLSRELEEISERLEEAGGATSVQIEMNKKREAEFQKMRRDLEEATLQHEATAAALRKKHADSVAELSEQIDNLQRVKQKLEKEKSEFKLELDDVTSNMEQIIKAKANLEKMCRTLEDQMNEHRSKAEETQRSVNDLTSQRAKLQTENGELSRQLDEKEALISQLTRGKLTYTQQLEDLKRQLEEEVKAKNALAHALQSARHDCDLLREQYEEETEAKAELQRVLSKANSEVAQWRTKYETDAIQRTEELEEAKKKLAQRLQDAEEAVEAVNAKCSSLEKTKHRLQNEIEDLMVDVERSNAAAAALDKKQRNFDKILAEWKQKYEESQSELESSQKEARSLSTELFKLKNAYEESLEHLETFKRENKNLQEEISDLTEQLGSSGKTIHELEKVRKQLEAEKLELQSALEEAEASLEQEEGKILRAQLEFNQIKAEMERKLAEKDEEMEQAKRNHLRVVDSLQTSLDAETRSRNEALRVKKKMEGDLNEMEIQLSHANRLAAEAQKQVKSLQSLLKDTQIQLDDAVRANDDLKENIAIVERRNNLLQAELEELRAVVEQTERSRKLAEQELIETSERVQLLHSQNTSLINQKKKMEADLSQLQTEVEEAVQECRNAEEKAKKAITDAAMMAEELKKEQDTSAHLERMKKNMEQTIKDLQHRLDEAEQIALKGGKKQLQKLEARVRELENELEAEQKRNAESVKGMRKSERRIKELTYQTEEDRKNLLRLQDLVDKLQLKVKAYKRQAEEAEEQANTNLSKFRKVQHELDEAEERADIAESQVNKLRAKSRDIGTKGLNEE
T1 sequence (P85100 whole entry partner): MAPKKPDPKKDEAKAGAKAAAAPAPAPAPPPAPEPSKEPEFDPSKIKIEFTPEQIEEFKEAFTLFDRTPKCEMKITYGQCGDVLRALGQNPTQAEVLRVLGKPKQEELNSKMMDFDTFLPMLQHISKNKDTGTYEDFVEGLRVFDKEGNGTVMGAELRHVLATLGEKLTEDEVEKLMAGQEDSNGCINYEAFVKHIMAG
T1 sequence (Q3SZE5 whole entry partner): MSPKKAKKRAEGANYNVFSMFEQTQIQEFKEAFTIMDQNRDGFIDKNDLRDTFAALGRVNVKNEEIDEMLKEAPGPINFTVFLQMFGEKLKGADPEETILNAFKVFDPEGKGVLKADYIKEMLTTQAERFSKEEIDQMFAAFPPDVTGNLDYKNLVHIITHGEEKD

| Compound | IC50 ([1]; read-out: bcMF pCa_6 IC50 MEAN) | IC50 ([1]; read-out: bcMF pCa 6 IC50) | IC50 [2] | % GSH-adduct (+NADPH, +GSH) relative to parent (−NADPH, −GSH) ([4]; human liver microsomes, 30 μM, 60 min) | Glutathione Adduct Detection in Human Liver Microsome Incubations (single measurement) [4] | Glutathione Adduct Detection in Human Liver Microsome Incubations, Average (triple measurements) [4] | solubility kinetic at 1.5 h [5] | Cardiac selectivity ratio vs rbskMF pCa 6 IC50 [3] |
| --- | --- | --- | --- | --- | --- | --- | --- | --- |
| O=c1[nH]c2c(c(=O)n1C1CCOCC1)C[C@H](F)[C@H](c1cc(CO)ccc1F)N2 | 780 nM | – | – | – | – | – | – | – |
| Cc1ccc(F)c([C@H]2Nc3[nH]c(=O)n(C4CCOCC4)c(=O)c3C[C@H]2F)c1 [Compound 5, (6R,7R)-6-fluoro-7-(2-fluoro-5-methylphenyl)-3-(tetrahydro-2H-pyran-4-yl)-5,6,7,8-tetrahydropyrido[2,3-d]pyrimidine-2,4(1H, 3H)-dione] | 20800 nM | – | – | – | Not Detected | Not Detected | – | – |
| Cc1ccc(F)c([C@H]2Nc3[nH]c(=O)n(C4CCOCC4)c(=O)c3C[C@@H]2F)c1 [Compound 6, (6S,7R)-6-fluoro-7-(2-fluoro-5-methylphenyl)-3-(tetrahydro-2H-pyran-4-yl)-5,6,7,8-tetrahydropyrido[2,3-d]pyrimidine-2,4(1H,3H)-dione] | 26400 nM | – | – | – | Not Detected | Not Detected | – | – |
| C#Cc1ccc(F)c([C@@H]2Nc3[nH]c(=O)n(C4CCOCC4)c(=O)c3C[C@@H]2F)c1 [Compound 7] | 540 nM | – | – | – | – | – | – | – |
| O=c1[nH]c2c(c(=O)n1C1CCOCC1)C[C@H](F)[C@H](c1ccccc1F)N2 [Compound 9] | 5590 nM | – | – | – | Not Detected | Not Detected | – | – |
| COc1ccc(F)c([C@@H]2Nc3[nH]c(=O)n(C4CCOCC4)c(=O)c3C[C@@H]2F)c1 [Compound 10] | 1020 nM | – | – | – | Not Detected | Not Detected | – | – |

Second part, led by results:

| IC50 ([1]; read-out: bcMF pCa_6 IC50 MEAN) | IC50 ([1]; read-out: bcMF pCa 6 IC50) | IC50 [2] | % GSH-adduct (+NADPH, +GSH) relative to parent (−NADPH, −GSH) ([4]; human liver microsomes, 30 μM, 60 min) | Glutathione Adduct Detection in Human Liver Microsome Incubations (single measurement) [4] | Glutathione Adduct Detection in Human Liver Microsome Incubations, Average (triple measurements) [4] | solubility kinetic at 1.5 h [5] | Compound | Cardiac selectivity ratio vs rbskMF pCa 6 IC50 [3] |
| --- | --- | --- | --- | --- | --- | --- | --- | --- |
| 3030 nM | 3030 nM | 3700 nM | Not Detected | Not Detected | Not Detected | – | O=c1[nH]c2c(c(=O)n1C1CCOCC1)C[C@H](F)[C@H](c1cccc(F)c1)N2 [Compound 1, (6S,7S)-6-fluoro-7-(3-fluorophenyl)-3-(tetrahydro-2H-pyran-4-yl)-5,6,7,8-tetrahydropyrido[2,3-d]pyrimidine-2, 4(1H, 3H)-dione] | 7.38 |
| 2130 nM | 2130 nM | 3110 nM | – | Not Detected | Not Detected | – | O=c1[nH]c2c(c(=O)n1C1CCOCC1)C[C@@H](F)[C@H](c1cccc(F)c1)N2 [Compound 2, (6R,7S)-6-fluoro-7-(3-fluorophenyl)-3-(tetrahydro-2H-pyran-4-yl)-5,6,7,8-tetrahydropyrido[2,3-d]pyrimidine-2,4(1H, 3H)-dione] | 10.71 |
| 370 nM | – | – | – | Not Detected | Not Detected | – | Cc1ccc(F)c([C@@H]2Nc3[nH]c(=O)n(C4CCOCC4)c(=O)c3C[C@H]2F)c1 [Compound 4, (6R,7S)-6-fluoro-7-(2-fluoro-5-methylphenyl)-3-(tetrahydro-2H-pyran-4-yl)-5,6,7,8-tetrahydropyrido[2,3-d]pyrimidine-2,4(1H, 3H)-dione] | – |
| 1460 nM | – | – | – | Not Detected | Not Detected | – | O=c1[nH]c2c(c(=O)n1C1CCOCC1)C[C@@H](F)[C@H](c1ccccc1F)N2 [Compound 8] | – |
| 490 nM | – | – | – | Not Detected | Not Detected | – | COc1ccc(F)c([C@@H]2Nc3[nH]c(=O)n(C4CCOCC4)c(=O)c3C[C@H]2F)c1 [Compound 11] | – |
| 23200 nM | – | – | – | Not Detected | Not Detected | – | O=c1[nH]c2c(c(=O)n1C1CCOCC1)C[C@@H](F)[C@@H](c1cccc(F)c1)N2 [Compound 12] | – |
| – | – | – | – | – | – | < 15 µM | COC(=O)[C@H]1[C@H]2C[C@@H]3c4[nH]c5cc(OC)ccc5c4CCN3C[C@H]2C[C@@H](OC(=O)c2cc(OC)c(OC)c(OC)c2)[C@@H]1OC [Reserpine] | – |
